According to US7737253B2, “Human cancer stem cell culture compositions comprising Erbb2 variants and methods of use thereof” (BresaGen, Inc., priority 2006, dated 2010):
“Also recorded” adds a separate entry of the source.

Key:
Erbb2 tyrosine kinase = Erbb2 tyrosine kinase (Homo sapiens, UniProt P04626); conditions: cited from earlier work
ERBB2 (phospho-Y1248) = test: Western blot of ERBB2 phospho-Y1248 in BG01 hESCs; type: cell-based, human; conditions: BG01 hESCs starved overnight
Protocol: BG01 hESCs were grown in DC-HAIF and then in media minus or starved of growth factors overnight, washed and then pulsed with either with heregulin (HRG) or not, or incubated with AG825 or not.
All BG01 HESC cultures were first grown in defined conditioned-heregulin/Activin A/IGF1/FGF (DC-HAIF) and then in media starved of growth factors overnight e.g., no heregulin, Activin A, IGF1 and/or FGF. […]
Cell lysates were prepared as per RTK blotting, separated by 4-20% gradient SDS-PAGE, blotted and detected with an immunoaffinity purified anti-ERBB2 (phospho-Y1248) antibody (Upstate/Millipore Cat#06229). The Erbb2 phospho-Y1248 antibody was used to quantify tyrosine phosphorylation of Erbb2 resulting from the interaction of heregulin with Erbb3 and/or ErbB4. […]

hESCs = test: hESC proliferation and cell count after treatment with AG825; type: cell-based, human; conditions: for cell count: average of triplicate counts
Protocol: Based on the above studies described in Examples 13 and 14, further experiments were performed to quantify the number of hESCs and determine the level of inhibition of Erbb2 using AG825. […] Values reported were taken from an average of the triplicate (3) cell counts. The initial cell count was performed similarly. AG825 inhibited Erbb2 tyrosine kinase activity, thereby inhibiting cell signaling, and effectively reducing and inhibiting HESC proliferation and growth by about at least 1, 2 or 3 orders of magnitude.

BG01v cells = test: Growth of BG01v cells in defined media with Erbb2 TK inhibitors; type: cell-based, human; conditions: absence of an exogenous Erbb2 activating growth factor
Source text: This confirms that endogenous Erbb2 signaling is critical for the self-renewal of BG01v cells and represents a major difference between variant and normal hESCs.

[1] = tested on: Erbb2Δ16-expressing cells; conditions: unlike wild type Erbb2-transfectants; cited from earlier work
Erbb2Δ16 = molecular target: T1, Erbb2Δ16 (Homo sapiens, UniProt P04626, DEL634-649); conditions: cited from earlier work
T1 construct: host or cells: transfected human cells / Erbb2Δ16 transgene over-expression (Castiglioni et al., 2006)

wild type Erbb2 = molecular target: T2, wild type Erbb2 (Homo sapiens, UniProt P04626); conditions: cited from earlier work
T2 construct: host or cells: transfected human cells (Castiglioni et al., 2006)

Erbb2/4 heterodimers = Erbb2/4 heterodimers (Homo sapiens, UniProt Q15303); conditions: read-out: binding affinity; cited from earlier work
Erbb2/3 heterodimers = Erbb2/3 heterodimers (Homo sapiens, UniProt P21860); conditions: read-out: binding affinity; cited from earlier work
Erbb3 = molecular target: T3, Erbb3 (Homo sapiens, UniProt P21860); test: Phospho-RTK antibody array, Erbb3 phosphorylation in BG01 and BG01v cells; type: cell-based; conditions: BG01 and BG01v cells starved overnight, then pulsed about 15 minutes with 10 ng/ml heregulin
T3 construct: endogenous in cells; host or cells: BG01 and BG01v human embryonic stem cells
Protocol: (§1) (A) BG01 and BG01v cells were grown in defined condition-heregulin/Activin A/IGF-1/FGF (DC-HAIF) media. The hESCs were starved of growth factors overnight (“Starved”), or starved then pulsed with 10 ng/ml Heregulin (“HRG pulse”). Cell lysates were prepared and examined for phosphorylation of Erbb2 and Erbb3 by RTK blotting. (B) The spots were quantified, normalized against controls, and charted as normalized relative intensity. […] While at a lower overall intensity, a similar pattern was also observed in the starved conditions.
(§2) Cells were maintained in steady state conditions in defined conditioned-heregulin/Activin A/IGF1/FGF (DC-HAIF), were incubated in media minus or starved of growth factors (e.g., no heregulin/Activin A/IGF1/FGF) overnight, or starved and then pulsed about 15 minutes with 10 ng/ml heregulin. Proteome Profiler™ human phospho-RTK antibody arrays (R&D Systems, Cat#ARY001) were used according to the manufacturer's instructions. […] The arrayed antibodies capture the extracellular domains of both phosphorylated and unphosphorylated RTKs, and bound phospho-RTKs were detected with a pan anti-phospho-tyrosine antibody conjugated to horseradish peroxidase (HRP) using chemiluminescence. X-ray film was scanned and spots were quantified using NTH-image (world wide web at rsb.info.nih.gov/nih-image/). […]

Erbb2 = test: Phospho-RTK antibody array, Erbb2 phosphorylation in BG01 and BG01v cells; type: cell-based, human; conditions: BG01 and BG01v cells starved overnight, then pulsed about 15 minutes with 10 ng/ml heregulin
Protocol: as §1, §2

## COc1cc(/C=C(\C#N)C(N)=O)cc(CSc2nc3ccccc3s2)c1O [AG825, Tyrphostin AG825]
Erbb2 tyrosine kinase
  selectivity as inhibitor of the Erbb2 tyrosine kinase: highly selective inhibitor
ERBB2 (phospho-Y1248); 15 minute pulse, 50 μM AG825 without or with 10 ng/ml HRG1β (lanes 2 and 4)
  autophosphorylation of ERBB2 at Tyrosine-1248: inhibited autophosphorylation; also recorded: inhibition of ERBB2 Y1248 phosphorylation
hESCs
  number of hESCs after treatment compared to DMSO and conditioned media (CM) control: statistically significant decrease
hESCs; Experiment 1, initial cell count 560 × 10^3, CM 1.99 × 10^6, DMSO 2.13 × 10^6, P = 0.005
  cell count: 406.6 × 10^3
hESCs; Experiment 2, initial cell count 853.3 × 10^3, CM 2.77 × 10^6, DMSO 2.54 × 10^6, P = 0.007
  cell count: 433.3 × 10^3
hESCs; hESCs growing in CM
  proliferation of hESCs: significantly inhibited proliferation
BG01v cells
  growth of BG01v cells: inhibit the growth

## CC(C)(C)c1cc(/C=C(\C#N)C(N)=S)cc(C(C)(C)C)c1O [AG879]
BG01v cells
  growth of BG01v cells: inhibit the growth

## COc1cc2ncnc(Nc3ccc(F)c(Cl)c3)c2cc1OCCCN1CCOCC1 [ZD1839]
[1]
  sensitivity of Erbb2Δ16-expressing cells to the drug: low sensitivity

## Cc1cc(O)c2c(c1)C(=O)c1cc(O)cc(O)c1C2=O [emodin]
Erbb2Δ16
  activation of Erbb2Δ16 transfectants: blocked activation
Wild type Erbb2
  activation of wild type Erbb2 transfectants: blocked activation
BG01v cells
  growth of BG01v cells: inhibit the growth

## HRG-β: neuregulin-β, EGF growth factor family member; cleaved ectodomain of neuregulin
Erbb2/4 heterodimers
  Kd: < 1 nM
Erbb2/3 heterodimers
  Kd: < 1 nM

## HRG: Heregulin-β EGF domain (HRGβ, Peprotech), recombinant growth factor
ERBB2 (phospho-Y1248); 15 minute pulse with 10 ng/ml HRG1β (lane 3) or DC-HAIF media (lane 5)
  Erbb2 phosphorylation detected by phospho-Y1248 antibody: increased Erbb2 phosphorylation
Erbb3
  phosphorylation of ERBB3: strong phosphorylation
Erbb2
  phosphorylation of ERBB2: strong phosphorylation
